Measured values taken from patent US7902181B2, “Compounds 010” (AstraZeneca AB, priority 2007, dated 2011).
Structures can show the parent of a compound that is named as a salt.

Target: Recombinant Human (rh) DPP1 (Homo sapiens, UniProt P53634)
Experiment: Fluorescence Assay for Recombinant Human (rh) DPP1
Assay type: biochemical
Settings: rhDPP1; substrate H-Gly-Arg-AMC; pH5.0; 30 min pre-incubation, 60 min reaction at 22° C.; highest concentration 10 μM; read-out: DPP1 activity, pIC50 (converted)
Method: Fluorescence Assay for Recombinant Human (rh) DPP1
The activity of DPP1 was determined by measuring the enzymatic release of aminomethyl coumarin (AMC) from the peptide substrate (H-Gly-Arg-AMC), which leads to an increase in fluorescence intensity at λex=350 nm and λem=450 nm. The assay was carried out in black 384 well plates in a final volume of 50 μl at 22° C. The assay conditions contained the following: 25 mM piperazine buffer pH5.0; 50 mM NaCl, 5 mM DTT; 0.01% (v/v) Triton X-100; 100 μM H-Gly-Arg-AMC and rhDPP1 ([…]). Potential inhibitors were made up in DMSO and then diluted in the assay to give a final concentration of 1% (v/v) DMSO. A 12-point half-log dilution of the inhibitors (highest concentration 10 μM) was tested and the pIC50 determined using a 4-parameter logistic equation in a non-linear curve fitting routine. A standard DPP1 inhibitor (vinyl sulfone, see below) was used as a positive control in the assay. Routinely, inhibitors were pre-incubated with rhDPP1 for 30 min prior to the addition of the peptide substrate to start the reaction for a further 60 min at 22° C. After that the plates were immediately read in a fluorescence plate reader using the above emission and excitation wavelengths [modified from Kam, C M, Gotz, M G, Koot, G, McGuire, M J, Thiele, D L, Hudig, D & Powers, J C (2004). Arch Biochem Biophys, 427, 123-134 & McGuire, M J, Lipsky, P E & Thiele, D L (1992). Arch Biochem Biophys, 295, 280-288].

Recombinant Human (rh) DPP1, sequence (P53634 25-463): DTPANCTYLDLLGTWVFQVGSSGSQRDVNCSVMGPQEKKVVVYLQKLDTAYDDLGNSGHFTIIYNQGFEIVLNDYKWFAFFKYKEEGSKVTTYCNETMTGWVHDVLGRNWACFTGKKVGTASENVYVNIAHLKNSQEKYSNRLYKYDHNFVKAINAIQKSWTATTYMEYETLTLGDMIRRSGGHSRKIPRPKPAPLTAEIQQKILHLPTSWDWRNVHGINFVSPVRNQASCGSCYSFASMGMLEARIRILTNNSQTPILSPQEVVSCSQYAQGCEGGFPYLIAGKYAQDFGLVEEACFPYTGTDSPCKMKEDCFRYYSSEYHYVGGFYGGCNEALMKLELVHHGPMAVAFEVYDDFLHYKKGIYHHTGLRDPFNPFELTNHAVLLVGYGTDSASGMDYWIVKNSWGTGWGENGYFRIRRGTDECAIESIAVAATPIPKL

SMILES | IC50 [nM]
COc1ccc(-c2ccc(C[C@@H](C#N)NC(=O)[C@@H]3CCCCN3)cc2)cc1OC [Example 32, (2S)-N-[(1S)-1-Cyano-2-[4-(3,4-dimethoxyphenyl)phenyl]ethyl]piperidine-2-carboxamide trifluoroacetate] | 158
COc1ccc(-c2ccc(C[C@@H](C#N)NC(=O)[C@@H]3CCCCN3)cc2)c(OC)c1 [Example 33, (2S)-N-[(1S)-1-Cyano-2-[4-(2,4-dimethoxyphenyl)phenyl]ethyl]piperidine-2-carboxamide trifluoroacetate] | 200
N#C[C@H](Cc1ccc(-c2cccc(C(N)=O)c2)cc1)NC(=O)[C@@H]1CCCCN1 [Example 34, (2S)-N-[(1S)-2-[4-(3-Carbamoylphenyl)phenyl]-1-cyano-ethyl]piperidine-2-carboxamide trifluoroacetate] | 200
N#C[C@H](Cc1ccc(-c2ccc3c(c2)OCCO3)cc1)NC(=O)[C@@H]1CCCCN1 [Example 35, (2S)-N-[(1S)-1-Cyano-2-[4-(2,5-dioxabicyclo[4.4.0]deca-7,9,11-trien-8-yl)phenyl]ethyl]piperidine-2-carboxamide trifluoroacetate] | 251
N#C[C@H](Cc1ccc(-c2ccc(CN)cc2)cc1)NC(=O)[C@@H]1CCCCN1 [Example 36, (2S)-N-[(1S)-2-[4-[4-(Aminomethyl)phenyl]phenyl]-1-cyano-ethyl]piperidine-2-carboxamide trifluoroacetate] | 251
CN(C)c1ncc(-c2ccc(C[C@@H](C#N)NC(=O)[C@@H]3CCCCN3)cc2)cn1 [Example 37, (2S)-N-[(1S)-1-Cyano-2-[4-(2-dimethylaminopyrimidin-5-yl)phenyl]ethyl]piperidine-2-carboxamide trifluoroacetate] | 316
Cc1cscc1-c1ccc(C[C@@H](C#N)NC(=O)[C@@H]2CCCCN2)cc1 [Example 38, (2S)-N-[(1S)-1-Cyano-2-[4-(4-methylthiophen-3-yl)phenyl]ethyl]piperidine-2-carboxamide trifluoroacetate] | 316
CCCOc1ccc(-c2ccc(C[C@@H](C#N)NC(=O)[C@@H]3CCCCN3)cc2)cc1F [Example 39, (2S)-N-[(1S)-1-Cyano-2-[4-(3-fluoro-4-propoxy-phenyl)phenyl]ethyl]pipe-ridine-2-carboxamide trifluoroacetate] | 316
COc1ncccc1-c1ccc(C[C@@H](C#N)NC(=O)[C@@H]2CCCCN2)cc1 [Example 40, (2S)-N-[(1S)-1-Cyano-2-[4-(2-methoxypyridin-3-yl)phenyl]ethyl]piperidine-2-carboxamide trifluoroacetate] | 316
Cn1nccc1-c1ccc(C[C@@H](C#N)NC(=O)[C@@H]2CCCCN2)cc1 [Example 41, (2S)-N-[(1S)-1-Cyano-2-[4-(2-methylpyrazol-3-yl)phenyl]ethyl]piperidine-2-carboxamide trifluoroacetate] | 398
CN(C)C(=O)c1cccc(-c2ccc(C[C@@H](C#N)NC(=O)[C@@H]3CCCCN3)cc2)c1 [Example 42, (2S)-N-[(1S)-1-Cyano-2-[4-[3-(dimethylcarbamoyl)phe-nyl]phenyl]ethyl]piperi-dine-2-carboxamide trifluoroacetate] | 501
CCS(=O)(=O)c1ccc(-c2ccc(C[C@@H](C#N)NC(=O)[C@@H]3CCCCN3)cc2)c(C)c1 [Example 43, (2S)-N-[(1S)-1-Cyano-2-[4-(4-ethylsulfonyl-2-methyl-phenyl)phenyl]ethyl]pipe-ridine-2-carboxamide trifluoroacetate] | 631
COc1c(F)cc(F)cc1-c1ccc(C[C@@H](C#N)NC(=O)[C@@H]2CCCCN2)cc1 [Example 44, (2S)-N-[(1S)-1-Cyano-2-[4-(3,5-difluoro-2-methoxy-phenyl)phenyl]ethyl]pipe-ridine-2-carboxamide trifluoroacetate] | 631
N#C[C@H](Cc1ccc(-c2cccc(CO)c2)cc1)NC(=O)[C@@H]1CCCCN1 [Example 45, (2S)-N-[(1S)-1-Cyano-2-[4-[3-(hydroxymethyl)phenyl]phenyl]ethyl]piperidine-2-carboxamide trifluoroacetate] | 794
